Results published in US11753445B2, “Therapeutic peptides” (COHBAR, INC., priority 2016, dated 2023).
Peptide text beside a SMILES is read from it.

System: 3T3-L1 Adipocytes
Test: Free fatty acid levels in cultured mouse 3T3-L1 adipocytes, isoproterenol stimulated (Example 2)
Format: cell-based
Details: test peptides 25 μM; isoproterenol 1 nM
Method: Mouse 3T3-L1 cells were seeded at a density between 1,000-20,000 cells per well on 96-well, 48-well, or 24-well plates in Pre-adipocyte Medium (Zen-Bio, Durham, N.C.) and grown to confluence at 37° C. in a humidified atmosphere of 5% CO2/95% air. Two days after confluence, cells were placed in Adipocyte Differentiation Medium (Zen-Bio, Durham, N.C.) and cultured for three additional days at 37° C. in a humidified atmosphere of 5% CO2/95% air. The culture media was then replaced with Adipocyte Maintenance Medium (Zen-Bio) and the cells were maintained for an additional 9-14 days at 37° C. in a humidified atmosphere of 5% CO2/95% air with partial medium replacement every other day. Following 12-17 days of differentiation, test peptides were added at a final concentration of 25 μM and incubated for 18-20 hours in Adipocyte Maintenance Medium at 37° C. in a humidified atmosphere of 5% CO2/95%. After 18-20 hours, the media was exchanged with fresh Adipocyte Maintenance Medium containing test peptides and incubated for 1 h at 37° C. in a humidified atmosphere of 5% CO2/95%. After 1 h media was exchanged with Assay Buffer (Zen-Bio) containing isoproterenol (1 nM) (added to all samples except untreated controls) and the test peptides. Cells were incubated for a further 3 hours at 37° C. in a humidified atmosphere of 5% CO2/95%. Free fatty acid concentrations in the media were determined using a Free Fatty Acid Assay Kit (Zen-Bio) according to the manufacturer's instructions using a plate reader (540 nm).
Absorbance values were corrected for untreated background and expressed relative to isoproterenol treated cells. Treatment with isoproterenol (1 nM) alone was used as the free fatty acid level stimulatory control. The relative standard deviation of the isoproterenol control was <10%. […] Free fatty acid levels for insulin (100 nM) treatment were <5% of the isoproterenol control value.

Structure (SMILES) | Free Fatty Acid Levels in 3T3-L1 Adipocytes Expressed as a Percent of Isoproterenol Control: Percent of Control Value
CC[C@H](C)[C@H](NC(=O)[C@H](Cc1ccc(O)cc1)NC(=O)CNC(=O)[C@H](CCSC)NC(=O)[C@H](CCC(=O)O)NC(=O)[C@@H](C)NC(=O)[C@H](Cc1c[nH]c2ccccc12)NC(=O)[C@H](CCCNC(=N)N)NC(=O)[C@@H](N)CCSC)C(=O)N[C@@H](Cc1ccccc1)C(=O)N[C@@H](Cc1ccc(O)cc1)C(=O)N1CCC[C@H]1C(=O)N[C@@H](CCCNC(=N)N)C(=O)N[C@@H](CCCCN)C(=O)N[C@@H](CC(C)C)C(=O)N[C@@H](CCCNC(=N)N)C(=O)O [compound 139] (HELM PEPTIDE1{M.R.W.[dA].E.M.G.Y.I.F.Y.P.R.K.L.R}$$$$V2.0) | 58.1%
CC[C@H](C)[C@H](NC(=O)[C@H](Cc1ccc(O)cc1)NC(=O)CNC(=O)[C@H](CCSC)NC(=O)[C@@H](C)NC(=O)[C@H](CCC(N)=O)NC(=O)[C@H](Cc1c[nH]c2ccccc12)NC(=O)[C@H](CCCNC(=N)N)NC(=O)[C@@H](N)CCSC)C(=O)N[C@@H](Cc1ccccc1)C(=O)N[C@@H](Cc1ccc(O)cc1)C(=O)N1CCC[C@H]1C(=O)N[C@@H](CCCNC(=N)N)C(=O)N[C@@H](CCCCN)C(=O)N[C@@H](CC(C)C)C(=O)N[C@@H](CCCNC(=N)N)C(=O)O [compound 140] (HELM PEPTIDE1{M.R.W.Q.[dA].M.G.Y.I.F.Y.P.R.K.L.R}$$$$V2.0) | 60.8%
CC[C@H](C)[C@H](NC(=O)[C@H](Cc1ccc(O)cc1)NC(=O)CNC(=O)[C@@H](C)NC(=O)[C@H](CCC(=O)O)NC(=O)[C@H](CCC(N)=O)NC(=O)[C@H](Cc1c[nH]c2ccccc12)NC(=O)[C@H](CCCNC(=N)N)NC(=O)[C@@H](N)CCSC)C(=O)N[C@@H](Cc1ccccc1)C(=O)N[C@@H](Cc1ccc(O)cc1)C(=O)N1CCC[C@H]1C(=O)N[C@@H](CCCNC(=N)N)C(=O)N[C@@H](CCCCN)C(=O)N[C@@H](CC(C)C)C(=O)N[C@@H](CCCNC(=N)N)C(=O)O [compound 141] (HELM PEPTIDE1{M.R.W.Q.E.[dA].G.Y.I.F.Y.P.R.K.L.R}$$$$V2.0) | 56.9%
CC[C@H](C)[C@H](NC(=O)[C@H](Cc1ccc(O)cc1)NC(=O)[C@@H](C)NC(=O)[C@H](CCSC)NC(=O)[C@H](CCC(=O)O)NC(=O)[C@H](CCC(N)=O)NC(=O)[C@H](Cc1c[nH]c2ccccc12)NC(=O)[C@H](CCCNC(=N)N)NC(=O)[C@@H](N)CCSC)C(=O)N[C@@H](Cc1ccccc1)C(=O)N[C@@H](Cc1ccc(O)cc1)C(=O)N1CCC[C@H]1C(=O)N[C@@H](CCCNC(=N)N)C(=O)N[C@@H](CCCCN)C(=O)N[C@@H](CC(C)C)C(=O)N[C@@H](CCCNC(=N)N)C(=O)O [compound 142] (HELM PEPTIDE1{M.R.W.Q.E.M.[dA].Y.I.F.Y.P.R.K.L.R}$$$$V2.0) | 31.9%
CC[C@H](C)[C@H](NC(=O)[C@@H](C)NC(=O)CNC(=O)[C@H](CCSC)NC(=O)[C@H](CCC(=O)O)NC(=O)[C@H](CCC(N)=O)NC(=O)[C@H](Cc1c[nH]c2ccccc12)NC(=O)[C@H](CCCNC(=N)N)NC(=O)[C@@H](N)CCSC)C(=O)N[C@@H](Cc1ccccc1)C(=O)N[C@@H](Cc1ccc(O)cc1)C(=O)N1CCC[C@H]1C(=O)N[C@@H](CCCNC(=N)N)C(=O)N[C@@H](CCCCN)C(=O)N[C@@H](CC(C)C)C(=O)N[C@@H](CCCNC(=N)N)C(=O)O [compound 143] (HELM PEPTIDE1{M.R.W.Q.E.M.G.[dA].I.F.Y.P.R.K.L.R}$$$$V2.0) | 64.5%
CSCC[C@H](NC(=O)[C@H](CCC(=O)O)NC(=O)[C@H](CCC(N)=O)NC(=O)[C@H](Cc1c[nH]c2ccccc12)NC(=O)[C@H](CCCNC(=N)N)NC(=O)[C@@H](N)CCSC)C(=O)NCC(=O)N[C@@H](Cc1ccc(O)cc1)C(=O)N[C@H](C)C(=O)N[C@@H](Cc1ccccc1)C(=O)N[C@@H](Cc1ccc(O)cc1)C(=O)N1CCC[C@H]1C(=O)N[C@@H](CCCNC(=N)N)C(=O)N[C@@H](CCCCN)C(=O)N[C@@H](CC(C)C)C(=O)N[C@@H](CCCNC(=N)N)C(=O)O [compound 144] (HELM PEPTIDE1{M.R.W.Q.E.M.G.Y.[dA].F.Y.P.R.K.L.R}$$$$V2.0) | 57.0%
CC[C@H](C)[C@H](NC(=O)[C@H](Cc1ccc(O)cc1)NC(=O)CNC(=O)[C@H](CCSC)NC(=O)[C@H](CCC(=O)O)NC(=O)[C@H](CCC(N)=O)NC(=O)[C@H](Cc1c[nH]c2ccccc12)NC(=O)[C@H](CCCNC(=N)N)NC(=O)[C@@H](N)CCSC)C(=O)N[C@H](C)C(=O)N[C@@H](Cc1ccc(O)cc1)C(=O)N1CCC[C@H]1C(=O)N[C@@H](CCCNC(=N)N)C(=O)N[C@@H](CCCCN)C(=O)N[C@@H](CC(C)C)C(=O)N[C@@H](CCCNC(=N)N)C(=O)O [compound 145] (HELM PEPTIDE1{M.R.W.Q.E.M.G.Y.I.[dA].Y.P.R.K.L.R}$$$$V2.0) | 50.2%
CC[C@H](C)[C@H](NC(=O)[C@H](Cc1ccc(O)cc1)NC(=O)CNC(=O)[C@H](CCSC)NC(=O)[C@H](CCC(=O)O)NC(=O)[C@H](CCC(N)=O)NC(=O)[C@H](Cc1c[nH]c2ccccc12)NC(=O)[C@H](CCCNC(=N)N)NC(=O)[C@@H](N)CCSC)C(=O)N[C@@H](Cc1ccccc1)C(=O)N[C@H](C)C(=O)N1CCC[C@H]1C(=O)N[C@@H](CCCNC(=N)N)C(=O)N[C@@H](CCCCN)C(=O)N[C@@H](CC(C)C)C(=O)N[C@@H](CCCNC(=N)N)C(=O)O [compound 146] (HELM PEPTIDE1{M.R.W.Q.E.M.G.Y.I.F.[dA].P.R.K.L.R}$$$$V2.0) | 55.9%
CC[C@H](C)[C@H](NC(=O)[C@H](Cc1ccc(O)cc1)NC(=O)CNC(=O)[C@H](CCSC)NC(=O)[C@H](CCC(=O)O)NC(=O)[C@H](CCC(N)=O)NC(=O)[C@H](Cc1c[nH]c2ccccc12)NC(=O)[C@H](CCCNC(=N)N)NC(=O)[C@@H](N)CCSC)C(=O)N[C@@H](Cc1ccccc1)C(=O)N[C@@H](Cc1ccc(O)cc1)C(=O)N[C@H](C)C(=O)N[C@@H](CCCNC(=N)N)C(=O)N[C@@H](CCCCN)C(=O)N[C@@H](CC(C)C)C(=O)N[C@@H](CCCNC(=N)N)C(=O)O [compound 147] (HELM PEPTIDE1{M.R.W.Q.E.M.G.Y.I.F.Y.[dA].R.K.L.R}$$$$V2.0) | 60.9%
CC[C@H](C)[C@H](NC(=O)[C@H](Cc1ccc(O)cc1)NC(=O)CNC(=O)[C@H](CCSC)NC(=O)[C@H](CCC(=O)O)NC(=O)[C@H](CCC(N)=O)NC(=O)[C@H](Cc1c[nH]c2ccccc12)NC(=O)[C@H](CCCNC(=N)N)NC(=O)[C@@H](N)CCSC)C(=O)N[C@@H](Cc1ccccc1)C(=O)N[C@@H](Cc1ccc(O)cc1)C(=O)N1CCC[C@H]1C(=O)N[C@H](C)C(=O)N[C@@H](CCCCN)C(=O)N[C@@H](CC(C)C)C(=O)N[C@@H](CCCNC(=N)N)C(=O)O [compound 148] (HELM PEPTIDE1{M.R.W.Q.E.M.G.Y.I.F.Y.P.[dA].K.L.R}$$$$V2.0) | 25.0%
CC[C@H](C)[C@H](NC(=O)[C@H](Cc1ccc(O)cc1)NC(=O)CNC(=O)[C@H](CCSC)NC(=O)[C@H](CCC(=O)O)NC(=O)[C@H](CCC(N)=O)NC(=O)[C@H](Cc1c[nH]c2ccccc12)NC(=O)[C@H](CCCNC(=N)N)NC(=O)[C@@H](N)CCSC)C(=O)N[C@@H](Cc1ccccc1)C(=O)N[C@@H](Cc1ccc(O)cc1)C(=O)N1CCC[C@H]1C(=O)N[C@@H](CCCNC(=N)N)C(=O)N[C@@H](CCCCN)C(=O)N[C@H](C)C(=O)N[C@@H](CCCNC(=N)N)C(=O)O [compound 150] (HELM PEPTIDE1{M.R.W.Q.E.M.G.Y.I.F.Y.P.R.K.[dA].R}$$$$V2.0) | 53.9%
CC[C@H](C)[C@H](NC(=O)[C@H](Cc1ccc(O)cc1)NC(=O)CNC(=O)[C@H](CCSC)NC(=O)[C@H](CCC(=O)O)NC(=O)[C@H](CCC(N)=O)NC(=O)[C@H](Cc1c[nH]c2ccccc12)NC(=O)[C@H](CCCNC(=N)N)NC(=O)[C@@H](N)CCSC)C(=O)N[C@@H](Cc1ccccc1)C(=O)N[C@@H](Cc1ccc(O)cc1)C(=O)N1CCC[C@H]1C(=O)N[C@@H](CCCNC(=N)N)C(=O)N[C@@H](CCCCN)C(=O)N[C@@H](CC(C)C)C(=O)N[C@H](C)C(=O)O [compound 151] (HELM PEPTIDE1{M.R.W.Q.E.M.G.Y.I.F.Y.P.R.K.L.[dA]}$$$$V2.0) | 47.9%
CC[C@H](C)[C@H](NC(=O)[C@H](Cc1ccc(O)cc1)NC(=O)CNC(=O)[C@H](CCSC)NC(=O)[C@H](CCC(=O)O)NC(=O)[C@H](CCC(N)=O)NC(=O)[C@H](Cc1c[nH]c2ccccc12)NC(=O)[C@H](CCCNC(=N)N)NC(=O)[C@@H](C)NC(C)=O)C(=O)N[C@@H](Cc1ccccc1)C(=O)N[C@@H](Cc1ccc(O)cc1)C(=O)N1CCC[C@H]1C(=O)N[C@@H](CCCNC(=N)N)C(=O)N[C@@H](CCCCN)C(=O)N[C@@H](CC(C)C)C(=O)N[C@@H](CCCNC(=N)N)C(N)=O [compound 152] (HELM PEPTIDE1{[ac].[dA].R.W.Q.E.M.G.Y.I.F.Y.P.R.K.L.R.[am]}$$$$V2.0) | 81.9%
